From US20040170601A1, “Method of improving the growth performance of an animal” (priority 2001, published 2004)
“Also recorded” adds a separate entry of the source.

Legend:
[1] = tested on: haemorrhagic E. coli; experiment: Example 6: haemorrhagic E. coli challenge of weaner pigs; format: in vivo; design: decrease in faecal shedding (total faecal culture scores) compared to saline treated controls / reduction in clinical signs compared to saline controls / reduction in E. coli culture scores at post-mortem compared to saline controls / reduction of bacterial load in the small intestine (foregut) compared with saline controls: concentration or dose not given beside the values
Procedure: Male weaner pigs, with a mean weight of 5.4 kg were allocated to groups of 8, with the mean weight being equalised between groups. Pigs were housed in group pens. Pigs were provided with pelleted feed and water ad libitum.
Pigs were treated with cytokines or the antibiotic, Apralan, and challenged with E. coli according to the schedule outlined in FIG. 42. E. coli were delivered orally in an 8 ml dose containing 10^8 cfu/ml. Blood was sampled from pigs by venipuncture at −2 days, day 0, and +6 days from initial challenge with E. coli as outlined in FIG. 42. Blood was assayed for immunological parameters as previously described. Pigs were weighed at day −2 and at the end of the trial on day 7.
Faecal samples were taken from each pig daily from day 2 to day 6 after challenge; these samples were cultured on sheep blood agar to quantify E. coli load. The condition of faeces on each day of challenge was noted as normal, wet or diarrhoea, as an indication of clinical signs.
At the conclusion of the experiment, pigs were euthanased and samples were taken from different areas in the gastro-intestinal tract, including the small intestine (25%, 50% and 75% along the length of the small intestine), the caecum and colon, and from the faeces. These post-mortem samples were also plated out on sheep blood agar to quantify E. coli load. Growth on sheep blood agar was scored from 0 to 5 (where 0 was no growth, 1 signified growth in the primary inoculum, 2 signified growth in the first streak, 3 signified growth in the 2nd streak, 4 signified growth in the 3rd streak, and 5 signified growth of E. coli in the final streak), and group means and standard errors were calculated.

[2] = tested on: Brachyspira (Serpulina) hyodysenteriae; experiment: Example 13: swine dysentery challenge, IL-4 prophylactic; format: in vivo, pigs
Source text: The aim of this example was to determine whether IL-4 could improve the health of pigs infected with an enteric inflammatory pathogen causing swine dysentery, Brachyspira (Serpulina) hyodysenteriae. A further aim was to determine whether IL-4 could improve the growth rate of pigs under conditions of challenge with swine dysentery.
Male pigs with a mean starting weight of 6.5 kg, were allocated to treatment groups consisting of eight pigs (Table 10). Pigs were housed in group pens, with each pen containing a replicate from each of the treatment groups. One group of 8 pigs was housed in a separate room and left uninfected to act as untreated controls. Pigs were provided with pelleted feed and water ad libitum.
Prior to swine dysentery challenge, pigs were treated with recombinant IL-4 or saline, as described in Table 10. Cytokines and the antibiotic, Lincocin, were delivered by intramuscular injection at intervals outlined in Table 11. Pigs were infected with Brachyspira hyodysenteriae at day 0, day 1 and day 2, given as an oral bolus of 120ml of spirochaete culture in log phase of growth, containing approximately […] cells.
Faecal swabs and blood samples were taken from each pig at intervals described in Table 11. Faecal swabs were cultured for the presence of spirochaetes. Blood samples were assayed for immunological parameters as described in example 1 above. Pigs were weighed at weekly intervals throughout the experiment, which was terminated by euthanasia on days 19 and 20 after the initial challenge. At post mortem swabs from areas of the hindgut were cultured for the presence of spirochaetes, and the gross pathological condition of the gastro-intestinal tissue noted.

[3] = tested on: Brachyspira (Serpulina) hyodysenteriae; experiment: Example 7: swine dysentery challenge, IL-5 prophylactic; format: in vivo, pigs
Source text: One aim of this example was to determine whether IL-5 could improve the health of pigs infected with an enteric inflammatory pathogen causing swine dysentery, Brachyspira (Serpulina) hyodysenteriae. A further aim was to determine whether IL-5 could improve the growth rate of pigs under conditions of challenge with swine dysentery.
Male pigs with a mean starting weight of 6.5 kg, were allocated to treatment groups consisting of eight pigs (Table 6). Pigs were housed in group pens, with each pen containing a replicate from each of the treatment groups. One group of 8 pigs was housed in a separate room and left uninfected to act as untreated controls. Pigs were provided with pelleted feed and water ad libitum.
Prior to swine dysentery challenge, pigs were treated with recombinant IL-5 or saline, as described in Table 6. Cytokines and the antibiotic, Lincomycin, were delivered by intramuscular injection at intervals outlined in Table 7. Pigs were infected with Brachyspira hyodysenteriae at day 0, day 1 and day 2, given as an oral bolus of 120 ml of spirochaete culture in log phase of growth, containing approximately […].
Faecal swabs and blood samples were taken from each pig at intervals described in Table 7. Faecal swabs were cultured for the presence of spirochaetes. Blood samples were assayed for immunological parameters as described in example 1 above. Pigs were weighed at weekly intervals throughout the experiment, which was terminated by euthanasia on days 19 and 20 after the initial challenge. At post mortem swabs from areas of the hindgut were cultured for the presence of spirochaetes, and the gross pathological condition of the gastro-intestinal tissue noted.

[4] = cited from earlier work
[5] = tested on: Actinobacillus pleuropneumoniae; experiment: Example 12: Actinobacillus pleuropneumoniae (App) challenge: growth, clinical signs, lung pathology; format: in vivo, pigs
Source text: The following experiment was designed to determine whether IL-4 could improve the growth of immunologically challenged pigs compared to saline treated controls and positive controls treated with the non-steroidal anti-inflammatory drug (NSAID) Flunix. It was also devised to determine whether IL-4 could be delivered via plasmids.
Male pigs, with a mean starting weight of 52 kg, were allocated to 5 treatment groups (Table 8). Pigs were housed in group pens, with each pen containing a replicate from each of the treatment groups. Pigs were provided with pelleted feed and water ad libitum.
Recombinant IL-4 and saline were administered as 2 ml doses, given subcutaneously behind the ear. Plasmids were administered in 1 ml doses, given intramuscularly in the hind-leg. Flunix was administered as a 2 ml dose according to the manufacturer's instructions, and delivered intramuscularly in the neck. The timetable of administration is outlined in Table 9 below.
(§1) Due to the intermittent availability of Actinobacillus pleuropneumoniae (App), the App challenge was performed separately on the 2 rooms, resulting in different time schedules for each room, as outlined in Table 9. Prior to each challenge, pigs were treated with recombinant cytokines, flunix or plasmids as described above; the timing of treatments with respect to challenge is described in Table 9. Pigs were anaesthetised and infected intratracheally with 7.5×10^5 […] on day 0.
(§2) Briefly, assays were performed on blood samples using standard techniques, including: white blood cell counts performed using an automated cell counter; differential cell counts performed manually on stained blood smears; lymphocyte subset enumeration via flow cytometry; neutrophil function determined by flow cytometry; lymphocyte proliferation determined using a thymidine incorporation assay in response to mitogens; total IgG and IgA levels were identified using indirect sandwich ELISA; levels of mRNA for pro-inflammatory cytokines was detected by RT-PCR. TNF levels were additionally measured in serum by bioassay using L929 target cells. Pigs were weighed weekly from delivery of plasmids and for 2 weeks after challenge.
IL-4 delivered as a recombinant caused a reduction of 36% in the presence of clinical symptoms compared to pigs treated with saline, while IL-4 delivered in plasmid form produced a reduction of 62% compared to saline-treated controls (45% reduction compared to plasmid-treated controls).
At the conclusion of the trial, pigs were euthanased and the lungs removed for post-mortem examination. Lungs were scored for pleurisy from 0-5 (FIG. 79) and the degree of pleuropneumonia was determined by weighing affected lung and expressed as a percentage of total lung weight (FIG. 80).

[6] = tested on: TNFα; experiment: Example 12: TNFα in serum after App challenge (bioassay, L929 target cells); format: in vivo, pigs; conditions: day 13 after challenge
Procedure: as §1
[…] Blood was assayed for immunological parameters as previously described.
as §2

CN[C@@H]1[C@@H](O[C@H]2O[C@H](CO)[C@@H](N)[C@H](O)[C@H]2O)OC2C[C@@H](N)[C@@H](O[C@H]3[C@H](O)[C@@H](O)[C@H](N)C[C@@H]3N)OC2[C@@H]1O (stereo partly drawn) [Apralan, reference compound]
clinical signs (wet faeces or diarrhoea) ([1]; 5 days after challenge): less recordings of wet faeces than did saline controls, but also displayed a minor increase in the prevalence of diarrhoea | E. coli shedding in faeces (faecal culture) ([1]; day 2 to day 6 after challenge): decreased E. coli shedding in faeces; also recorded: least bacterial shedding of all treatments | decrease in faecal shedding (total faecal culture scores) compared to saline treated controls ([1]; entire challenge period): 80% | appetite (daily feed intake per pig) during E. coli challenge ([1]; pig, in vivo): improved appetite compared to saline treated pigs | bacterial load in areas of the gastro-intestinal tract at post-mortem ([1]; pig, in vivo): reduced bacterial load in most areas of the gastro-intestinal tract | group mean total E. coli culture score at post-mortem (out of a possible 30) ([1]; pig, in vivo): 12 | reduction in clinical signs compared to saline controls ([1]; pig, in vivo): 27% | bacterial loads in the hindgut area (caecum and colon) ([1]; post-mortem): lowest of all treatments | reduction of bacterial load in the small intestine (foregut) compared with saline controls ([1]; post-mortem): 32%

CCC[C@@H]1C[C@@H](C(=O)N[C@@H]([C@H]2O[C@H](SC)[C@H](O)[C@@H](O)[C@H]2O)[C@@H](C)O)N(C)C1 [Lincocin, Lincomycin, reference compound]
spirochaete shedding in faeces (faecal culture) ([2]; after challenge): no signs of faecal spirochaete shedding by day 14 | gross pathology associated with dysentery ([2]; anterior colon, post mortem): reduced the incidence of pathological symptoms in anterior and posterior colon | total weight gained over the challenge period ([2]; day 7 prior to challenge to slaughter at days 19 and 20): 6.9 kg | mean weight at the end of the trial ([2]; days 19 and 20 after infection): 12.2 kg | incidence of clinical signs in faeces (of 8 pigs) ([2]; post mortem): one | gross pathology associated with dysentery ([2]; posterior colon, post mortem): reduced the incidence of pathological symptoms in anterior and posterior colon | spirochaete shedding in faeces (faecal culture) ([3]; after challenge): no signs of faecal spirochaete shedding by day 14 | reduction in the number of spirochaetes compared to saline treated pigs ([3]; anterior colon, post mortem): 89% | reduction in the number of spirochaetes compared to saline treated pigs ([3]; caecum, post mortem): 93% | reduction in the number of spirochaetes compared to saline treated pigs ([3]; faecal, post mortem): 100% | incidence of clinical signs in faeces (of 8 pigs) ([3]; post mortem): one | reduction in the number of spirochaetes compared to saline treated pigs ([3]; posterior colon, post mortem): 88%

CC(=O)OC/C=C(C)/C=C/C=C(C)/C=C/C1=C(C)CCCC1(C)C [Retinyl acetate]
IL-5 level and IL-4- and IL-5-containing cells in small intestinal mucosa ([4]; mice fed low-protein diet, 1 mg): significantly restored the IL-5 level and the number of IL-4- and IL-5-containing cells | anti-CT IgA level in intestinal mucosa ([4]; mouse, in vivo): prevented the decline of anti-CT IgA level in the protein-deficient mice

CNC[C@H](O)[C@@H](O)[C@H](O)[C@H](O)CO.Cc1c(Nc2ncccc2C(=O)O)cccc1C(F)(F)F [flunix, reference compound]
growth during the (first) week of App challenge ([5]; pig, in vivo): weight loss | growth in the second week of challenge ([5]; pig, in vivo): poorest growth of all groups in the second week of challenge | pleurisy at necropsy (score 0-5) ([5]; pig, in vivo): less pleurisy than the saline controls | weight gain over the 2 week period following challenge with App ([5]; pig, in vivo): lowest growth over the 2 week challenge period | weight gain over the 2 week period following challenge with App ([5]; pig, in vivo, listed as Flunix): poorest performing treatment in terms of growth | percentage of lung affected by App lesions ([5]; vs saline-treated controls): greatly reduced | TNFα production (serum) [6]: failed to inhibit the production of TNFα
